In publication PMC6208970, “Linking cytochrome P450 enzymes from Mycobacterium tuberculosis to their cognate ferredoxin partners” (Applied Microbiology and Biotechnology, 2018):

Tests used:
CYP125A1 = biological target: T1, CYP125A1 (Mycobacterium tuberculosis, UniProt P9WPP1); test: reconstituted turnover, GC-MS detection of 27-hydroxycholesterol; type: biochemical; conditions: 0.5 μM CYP, 50 μM cholesterol in methyl-β-cyclodextrin; FdrA or FprA with FdxD or FdxE; pH 7.4; 37 °C
T1 construct: gene cyp125
T1 sequence (P9WPP1 whole entry): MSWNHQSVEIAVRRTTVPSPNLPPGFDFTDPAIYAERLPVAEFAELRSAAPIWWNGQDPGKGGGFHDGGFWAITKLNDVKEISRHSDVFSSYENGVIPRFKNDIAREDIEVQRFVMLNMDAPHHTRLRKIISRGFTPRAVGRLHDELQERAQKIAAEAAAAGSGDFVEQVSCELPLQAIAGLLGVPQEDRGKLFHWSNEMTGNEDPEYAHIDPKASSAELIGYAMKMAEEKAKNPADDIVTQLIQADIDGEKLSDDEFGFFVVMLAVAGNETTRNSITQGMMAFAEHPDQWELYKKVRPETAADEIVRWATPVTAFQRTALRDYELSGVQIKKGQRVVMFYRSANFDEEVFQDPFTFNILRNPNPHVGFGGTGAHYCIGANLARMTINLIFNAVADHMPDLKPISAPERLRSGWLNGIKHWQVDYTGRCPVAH

CYP142A1 = biological target: T2, CYP142A1 (Mycobacterium tuberculosis, UniProt P9WPL5); type: biochemical
T2 construct: gene cyp142
T2 sequence (P9WPL5 whole entry): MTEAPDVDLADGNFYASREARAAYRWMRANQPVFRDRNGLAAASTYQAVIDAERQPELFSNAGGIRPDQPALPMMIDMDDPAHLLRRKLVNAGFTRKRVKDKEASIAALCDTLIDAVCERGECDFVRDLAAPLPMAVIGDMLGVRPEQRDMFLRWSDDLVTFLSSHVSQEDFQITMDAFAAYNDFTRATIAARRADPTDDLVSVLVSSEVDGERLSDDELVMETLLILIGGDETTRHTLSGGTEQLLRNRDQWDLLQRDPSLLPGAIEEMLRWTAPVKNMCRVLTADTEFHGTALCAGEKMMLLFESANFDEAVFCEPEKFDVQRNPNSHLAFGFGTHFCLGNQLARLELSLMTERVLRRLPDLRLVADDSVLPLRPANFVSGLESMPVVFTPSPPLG

CYP124A1 = biological target: T3, CYP124A1 (Mycobacterium tuberculosis, UniProt P9WPP3); test: reconstituted turnover, GC-MS detection of 27-hydroxycholesterol; type: biochemical; conditions: 0.5 μM CYP, 50 μM cholesterol in methyl-β-cyclodextrin; FdrA or FprA with FdxD or FdxE; pH 7.4; 37 °C
T3 construct: gene cyp124
T3 sequence (P9WPP3 whole entry): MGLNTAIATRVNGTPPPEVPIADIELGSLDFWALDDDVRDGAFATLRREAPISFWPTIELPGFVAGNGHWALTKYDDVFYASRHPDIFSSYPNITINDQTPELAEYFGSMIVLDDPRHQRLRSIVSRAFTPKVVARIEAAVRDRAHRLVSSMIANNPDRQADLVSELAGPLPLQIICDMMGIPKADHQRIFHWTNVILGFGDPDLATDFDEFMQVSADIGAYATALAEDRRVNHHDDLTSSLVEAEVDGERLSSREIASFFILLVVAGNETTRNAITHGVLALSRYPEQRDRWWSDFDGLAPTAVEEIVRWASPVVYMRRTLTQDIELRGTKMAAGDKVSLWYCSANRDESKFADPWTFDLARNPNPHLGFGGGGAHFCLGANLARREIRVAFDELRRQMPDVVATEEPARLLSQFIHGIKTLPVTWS

[1] = biological target: CYP143A1 (Mycobacterium tuberculosis) (UniProt P9WPL2); conditions: cited from earlier work
Sequence of CYP143A1 (Mycobacterium tuberculosis) (P9WPL2 whole entry): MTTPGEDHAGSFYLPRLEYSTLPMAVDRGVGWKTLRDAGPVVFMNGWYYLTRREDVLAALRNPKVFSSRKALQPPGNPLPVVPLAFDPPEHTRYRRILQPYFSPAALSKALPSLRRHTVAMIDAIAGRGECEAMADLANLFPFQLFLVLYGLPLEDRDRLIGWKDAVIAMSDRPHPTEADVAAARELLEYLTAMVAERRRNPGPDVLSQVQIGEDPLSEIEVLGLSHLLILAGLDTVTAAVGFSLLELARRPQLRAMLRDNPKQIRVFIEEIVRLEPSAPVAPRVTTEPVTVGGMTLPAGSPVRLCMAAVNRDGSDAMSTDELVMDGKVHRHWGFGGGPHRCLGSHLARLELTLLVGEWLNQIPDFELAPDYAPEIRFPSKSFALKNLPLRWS

Sequence of ferredoxin Rv1786 (O53937 whole entry): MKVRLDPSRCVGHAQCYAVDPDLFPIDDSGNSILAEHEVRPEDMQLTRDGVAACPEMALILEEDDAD

Compound: CC(C)CCC[C@@H](C)[C@H]1CC[C@H]2[C@@H]3CC=C4C[C@@H](O)CC[C@]4(C)[C@H]3CC[C@]12C [cholesterol]
- reconstituted turnover, GC-MS detection of 27-hydroxycholesterol (CYP125A1): only FdxD and FdxE were able to support cholesterol conversion
- reconstituted turnover, GC-MS detection of 27-hydroxycholesterol (CYP142A1): CYP142A1 was found to be the most efficient in cholesterol conversion
- reconstituted turnover, GC-MS detection of 27-hydroxycholesterol (CYP124A1): only FdxD and FdxE were able to support cholesterol conversion

Compound: ferredoxin Rv1786 (from UniProt O53937)
- Kd [1]: 337 nM
